# Experimental data: patent US11155557B2, “Pyrazolopyrimidine compounds and methods of use thereof” (Genentech, Inc., priority 2016, dated 2021)
# Read-outs that look alike come from different tables or passages of the source.
# What was measured:
# [1] = test system: JAK1-dependent STAT6 phosphorylation in BEAS-2B human bronchial epithelial cells; assay: JAK1 pathway assay: IL-13 stimulated STAT6 phosphorylation in BEAS-2B cells; assay type: cell-based; conditions: BEAS-2B cells, IL-13 stimulation, read-out: IL-13 p-STAT6 BEAS-2B IC50
# Method: JAK1 Pathway Assay in Cell Lines was Carried Out as Follows:
# Inhibitor potency (EC50) was determined in cell-based assays designed to measure JAK1 dependent STAT phosphorylation.
# In one assay approach, TF-1 human erythroleukemia cells obtained from the American Type Culture Collection (ATCC; Manassas, Va.) were used to measure JAK1-dependent STAT6 phosphorylation downstream of IL-13 stimulation. Prior to use in the assays, TF-1 cells were starved of GM-CSF overnight in OptiMEM medium (Life Technologies, Grand Island, N.Y.) supplemented with 0.5% charcoal/dextran stripped fetal bovine serum (FBS), 0.1 mM non-essential amino acids (NEAA), and 1 mM sodium pyruvate. The assays were run in 384-well plates in serum-free OptiMEM medium using 300,000 cells per well. In a second assay approach, BEAS-2B human bronchial epithelial cells obtained from ATCC were plated at 100,000 cells per well of a 96-well plate one day prior to the experiment. The BEAS-2B assay was run in complete growth medium (bronchial epithelial basal medium plus bulletkit; Lonza; Basel, Switzerland).
# Test compounds were serially diluted 1:2 in DMSO and then diluted 1:50 in medium just before use. Diluted compounds were added to the cells, for a final DMSO concentration of 0.2%, and incubated for 30 min (for the TF-1 assay) or 1 hr (for the BEAS-2B assay) at 37° C. Then, cells were stimulated with human recombinant cytokine at their respective EC90 concentrations, as previously determined for each individual lot. Cells were stimulated with IL-13 (R&D Systems, Minneapolis, Minn.) for 15 min at 37° C. […] The resultant samples were frozen in the plates at −80° C. Compound mediated inhibition of STAT6 phosphorylation was measured in the cell lysates using MesoScale Discovery (MSD) technology (Gaithersburg, Md.).
# [2] = biological target: isolated recombinant JAK2 kinase domain (Homo sapiens (Human), UniProt O60674); assay: JAK2 enzyme assay (Caliper LabChip, Ki); conditions: read-out: JAK2 Ki
# Sequence of isolated recombinant JAK2 kinase domain (O60674 849-1124): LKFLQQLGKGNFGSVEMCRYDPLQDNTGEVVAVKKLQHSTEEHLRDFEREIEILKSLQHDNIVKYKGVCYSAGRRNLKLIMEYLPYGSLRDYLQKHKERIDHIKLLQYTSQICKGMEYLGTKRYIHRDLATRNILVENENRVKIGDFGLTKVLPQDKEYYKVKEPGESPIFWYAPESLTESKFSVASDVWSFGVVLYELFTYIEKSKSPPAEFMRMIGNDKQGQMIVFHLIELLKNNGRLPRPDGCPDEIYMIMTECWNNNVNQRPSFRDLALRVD
# [3] = biological target: isolated recombinant JAK1 kinase domain (Homo sapiens (Human), UniProt P23458); assay: JAK1 enzyme assay (Caliper LabChip, Ki); assay type: biochemical
# Sequence of isolated recombinant JAK1 kinase domain (P23458 875-1153): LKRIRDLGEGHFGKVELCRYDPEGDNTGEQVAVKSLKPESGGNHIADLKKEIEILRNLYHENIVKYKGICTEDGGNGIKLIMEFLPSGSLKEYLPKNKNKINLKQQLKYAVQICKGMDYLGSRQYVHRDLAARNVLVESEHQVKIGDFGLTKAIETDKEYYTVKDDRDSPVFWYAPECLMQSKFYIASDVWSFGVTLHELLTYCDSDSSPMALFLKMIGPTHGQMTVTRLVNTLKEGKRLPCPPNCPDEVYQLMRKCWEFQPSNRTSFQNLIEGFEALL
# Method: The activity of the isolated recombinant JAK1 and JAK2 kinase domain was measured by monitoring phosphorylation of a peptide derived from JAK3 ([…] fluorescently labeled on the N-terminus with 5-carboxyfluorescein) using the Caliper LabChip R technology (Caliper Life Sciences, Hopkinton, Mass.).
SMILES,Ki [2] [nM],Ki [3] [nM],"IC50 ([1]; Homo sapiens, BEAS-2B) [nM]",IC50 [1] [nM]
"O=C(Nc1cn(C2CCCNC2)nc1-c1cc2ccccc2cc1OC(F)F)c1cnn2cccnc12 (racemic) [Example 5, N-(3-(3-(difluoromethoxy)naphthalen-2-yl)-1-(piperidin-3-yl)-1H-pyrazol-4-yl)pyrazolo[1,5-a]pyrimidine-3-carboxamide]",0.78,1.21,31,
"CN1CCCC(n2cc(NC(=O)c3cnn4cccnc34)c(-c3cc4cn[nH]c4cc3OC(F)F)n2)C1 (racemic) [Example 74, N-[3-[6-(difluoromethoxy)-1H-indazol-5-yl]-1-(1-methyl-3-piperidyl)pyrazol-4-yl]pyrazolo[1,5-a]pyrimidine-3-carboxamide]",0.98,1.63,18,
"CN1CCCC1Cn1cc(NC(=O)c2cnn3cccnc23)c(-c2cc3cn[nH]c3cc2OC(F)F)n1 (racemic) [Example 75, N-[3-[6-(difluoromethoxy)-1H-indazol-5-yl]-1-[(1-methylpyrrolidin-2-yl)methyl]pyrazol-4-yl]pyrazolo[1,5-a]pyrimidine-3-carboxamide]",0.26,0.31,11,
"CC1CNc2cc(OC(F)F)c(-c3nn(CC(=O)N4CCCCC4)cc3NC(=O)c3cnn4cccnc34)cc2S1 (single isomer, unassigned) [Example 101, N-[3-[6-(difluoromethoxy)-2-methyl-3,4-dihydro-2H-1,4-benzothiazin-7-yl]-1-[2-oxo-2-(1-piperidyl)ethyl]pyrazol-4-yl]pyrazolo[1,5-a]pyrimidine-3-carboxamide]",0.16,0.23,13,
"CC1CNc2cc(OC(F)F)c(-c3nn(CC(=O)N4CCCCC4)cc3NC(=O)c3cnn4cccnc34)cc2S1 (single isomer, unassigned) [Example 102, N-[3-[6-(difluoromethoxy)-2-methyl-3,4-dihydro-2H-1,4-benzothiazin-7-yl]-1-[2-oxo-2-(1-piperidyl)ethyl]pyrazol-4-yl]pyrazolo[1,5-a]pyrimidine-3-carboxamide]",0.19,0.2,,12
"CC1CNc2cc(OC(F)F)c(-c3nn(CC(=O)N4CC=CCC4)cc3NC(=O)c3cnn4cccnc34)cc2S1 (single isomer, unassigned) [Example 103, N-[3-[6-(difluoromethoxy)-2-methyl-3,4-dihydro-2H-1,4-benzothiazin-7-yl]-1-[2-(3,6-dihydro-2H-pyridin-1-yl)-2-oxo-ethyl]pyrazol-4-yl]pyrazolo[1,5-a]pyrimidine-3-carboxamide]",0.14,0.2,12,
"CC1CNc2cc(OC(F)F)c(-c3nn(CC(=O)N4CC=CCC4)cc3NC(=O)c3cnn4cccnc34)cc2S1 (single isomer, unassigned) [Example 104, N-[3-[6-(difluoromethoxy)-2-methyl-3,4-dihydro-2H-1,4-benzothiazin-7-yl]-1-[2-(3,6-dihydro-2H-pyridin-1-yl)-2-oxo-ethyl]pyrazol-4-yl]pyrazolo[1,5-a]pyrimidine-3-carboxamide]",0.16,0.15,,11
"CC1CNc2cc(OC(F)F)c(-c3nn(CC(=O)N(C)C)cc3NC(=O)c3cnn4cccnc34)cc2S1 (single isomer, unassigned) [Example 105, N-[3-[6-(difluoromethoxy)-2-methyl-3,4-dihydro-2H-1,4-benzothiazin-7-yl]-1-[2-(dimethylamino)-2-oxo-ethyl]pyrazol-4-yl]pyrazolo[1,5-a]pyrimidine-3-carboxamide]",0.13,0.19,24,
"O=C(O)Cn1cc(NC(=O)c2cnn3cccnc23)c(-c2cc3ccccc3cc2OC(F)F)n1 [Example 2, 2-(3-(3-(difluoromethoxy)naphthalen-2-yl)-4-(pyrazolo[1,5-a]pyrimidine-3-carboxamido)-1H-pyrazol-1-yl)acetic acid]",,0.64,128,
"CC(C)(C)OC(=O)N1CCC(C(=O)Cn2ncc3cc(-c4n[nH]cc4NC(=O)c4cnn5cccnc45)c(OC(F)F)cc32)CC1 [Example 18, tert-butyl 4-(2-(6-(difluoromethoxy)-5-(4-(pyrazolo[1,5-a]pyrimidine-3-carboxamido)-1H-pyrazol-3-yl)-1H-indazol-1-yl)acetyl)piperidine-1-carboxylate]",2.59,8.02,,
"COc1cc2sc(C(N)=O)cc2cc1-c1n[nH]cc1NC(=O)c1cnn2cccnc12 [Example 23, N-(3-(2-carbamoyl-6-methoxybenzo[b]thiophen-5-yl)-1H-pyrazol-4-yl)pyrazolo[1,5-a]pyrimidine-3-carboxamide]",6.01,9.27,,

# Now from value to compound, other results behind:
Ki [2] [nM],Ki [3] [nM],SMILES,"IC50 ([1]; Homo sapiens, BEAS-2B) [nM]",IC50 [1] [nM]
0.24,0.69,"O=C(Nc1c[nH]nc1-c1cc2c(cc1OC(F)F)CC(CO)O2)c1cnn2cccnc12 (racemic) [Example 15, N-(3-(5-(difluoromethoxy)-2-(hydroxymethyl)-2,3-dihydrobenzofuran-6-yl)-1H-pyrazol-4-yl)pyrazolo[1,5-a]pyrimidine-3-carboxamide]",143,
0.29,0.33,"NCC1CNc2cc(OC(F)F)c(-c3n[nH]cc3NC(=O)c3cnn4cccnc34)cc2S1 (racemic) [Example 38, N-[3-[2-(aminomethyl)-6-(difluoromethoxy)-3,4-dihydro-2H-1,4-benzothiazin-7-yl]-1H-pyrazol-4-yl]pyrazolo[1,5-a]pyrimidine-3-carboxamide]",> 1000,
0.06,0.08,"CC1CSc2cc(-c3n[nH]cc3NC(=O)c3cnn4cccnc34)c(OC(F)F)cc2N1 (racemic) [Example 41, N-[3-[6-(difluoromethoxy)-3-methyl-3,4-dihydro-2H-1,4-benzothiazin-7-yl]-1H-pyrazol-4-yl]pyrazolo[1,5-a]pyrimidine-3-carboxamide]",4,
0.17,0.16,"CC1CNc2cc(OC(F)F)c(-c3nn(CCN)cc3NC(=O)c3cnn4cccnc34)cc2S1 (racemic) [Example 80, N-[1-(2-aminoethyl)-3-[6-(difluoromethoxy)-2-methyl-3,4-dihydro-2H-1,4-benzothiazin-7-yl]pyrazol-4-yl]pyrazolo[1,5-a]pyrimidine-3-carboxamide]",13,
0.03,0.07,"CC1CNc2cc(OC(F)F)c(-c3n[nH]cc3NC(=O)c3cnn4cccnc34)cc2S1 (single isomer, unassigned) [Example 93, N-[3-[6-(difluoromethoxy)-2-methyl-3,4-dihydro-2H-1,4-benzothiazin-7-yl]-1H-pyrazol-4-yl]pyrazolo[1,5-a]pyrimidine-3-carboxamide]",6,
0.03,0.06,"CC1Sc2cc(-c3n[nH]cc3NC(=O)c3cnn4cccnc34)c(OC(F)F)cc2NC1=O (single isomer, unassigned) [Example 95, N-[3-[6-(difluoromethoxy)-2-methyl-3-oxo-4H-1,4-benzothiazin-7-yl]-1H-pyrazol-4-yl]pyrazolo[1,5-a]pyrimidine-3-carboxamide]",60,
0.05,0.07,"CC1Sc2cc(-c3n[nH]cc3NC(=O)c3cnn4cccnc34)c(OC(F)F)cc2NC1=O (single isomer, unassigned) [Example 96, N-[3-[6-(difluoromethoxy)-2-methyl-3-oxo-4H-1,4-benzothiazin-7-yl]-1H-pyrazol-4-yl]pyrazolo[1,5-a]pyrimidine-3-carboxamide]",,70
0.09,0.13,"CC1Sc2cc(-c3nn(C)cc3NC(=O)c3cnn4cccnc34)c(OC(F)F)cc2NC1=O (single isomer, unassigned) [Example 97, N-[3-[6-(difluoromethoxy)-2-methyl-3-oxo-4H-1,4-benzothiazin-7-yl]-1-methyl-pyrazol-4-yl]pyrazolo[1,5-a]pyrimidine-3-carboxamide]",7,
0.07,0.11,"CC1Sc2cc(-c3nn(C)cc3NC(=O)c3cnn4cccnc34)c(OC(F)F)cc2NC1=O (single isomer, unassigned) [Example 98, N-[3-[6-(difluoromethoxy)-2-methyl-3-oxo-4H-1,4-benzothiazin-7-yl]-1-methyl-pyrazol-4-yl]pyrazolo[1,5-a]pyrimidine-3-carboxamide]",,6
